Laboratory results published in US20230088286A1, “USP7 INHIBITOR FOR USE IN THE TREATMENT OF CANCER” (ALMAC DISCOVERY LIMITED, priority 2020, published 2023).
“Also recorded” adds a separate entry of the source. Like-named read-outs stand apart in the source and are kept apart here.

Tests used:
MMP-2 = MMP-2 in supernatants of HDF and HUVEC co-culture (Luminex); assay type: cell-based, human; settings: supernatants after 14 days
Procedure: Cell culture supernatants from tube formation were collected and MMP-2 levels were measured using Luminex®.
Next, the underlying mechanism of tube formation inhibition was investigated. […] To determine whether secretion of MMP-2 is modulated by USP7 inhibition, supernatants from HUVEC and HDF co-cultures were collected after 14 days.
Concentrations of MMP2 and MMP7 were determined in cell culture supernatants in triplicates using Luminex human cytokine/chemokine multiplex kits (Millipore, St. Charles, Mo., USA) according to the manufacturer's protocol.

[1] = tested on: HT29, H1299, LNCaP and MCF-7 cells; assay: sVEGF ELISA in cancer cells; assay type: cell-based, human; settings: MCF-7, HT29, H1299, compared to vehicle-treated cells
Procedure: Levels of sVEGF released to cell culture media was measured by ELISA.
(§1) For the co-culture experiments, 5×10^4 cancer cells were seeded in transwell in 0.5 mL complete growth medium and placed on the top of 0.1×10^6 fibroblasts plated in 12-well in 1 mL low serum growth media overnight. Following day cancer cells were washed with PBS and media replaced with reduced (1%) serum growth media. 0.5×10^6 PBMC were plated on top of fibroblasts, incubated for 45 min and activated with CD3 (1 μg/ml final concentration) and CD28 (5 μg/ml final concentration). […] Monoculture experiments, 0.1×10^6 cells were seeded in 12-well in 1 mL of complete growth media (cancer cells) or low serum growth media (fibroblasts) and incubated overnight. […] Afterwards, cell culture media was collected, cell debris were removed by centrifugation the concentration of VEGF in the cell culture supernatants was measured using the human/mouse VEGF immunoassay Quantikine ELISA kit (R&D systems, Minneapolis, Minn., USA) according to the manufacturer's instructions. For the intracellular VEGF detection, total protein concentration was determined by BCA (Pierce Chemical, USA) and VEGF levels determined using the same kit described above.

[2] = tested on: CT-26 cells in BALB/C mice; assay: CT-26 syngeneic tumour model (AD-04 study)
Procedure: FIG. 30: Effect of USP7 on the tumour microenvironment in vivo.
For subcutaneous tumour implantation, CT26 cells were injected subcutaneously (1×10^6cells in 200 μL of RPMI) in the right flank of 8- to 10-week-old BALB/c female mice. […] Tumour volume (in mm^3) was measured twice a week with a digital caliper and calculated by the following formula: volume=(width)^2×length/2. Body weight was measured twice a week. […]

[3] = tested on: immortalized lung fibroblasts (WI38-VA13); assay: sVEGF ELISA in immortalized fibroblasts; assay type: cell-based, human; settings: SV-40 immortalized, destabilized p53
Procedure: FIG. 7: USP7 inhibition-mediated decrease in VEGF secretion is dependent on a functional p53 pathway.
as §1

CT-26 tumours [4] = assay: Flow cytometry of tumour infiltrating immune cells, CT-26 model (AD-04); assay type: in vivo, mouse; settings: dosed 10 days
Procedure: FIG. 32: USP7 inhibition modulates the tumour microenvironment immune compartment. […] Flow cytometry analysis of tumour infiltrating immune cells in the CT-26 syngeneic model dosed with the USP7 inhibitor for 10 days.
(§2) Harvested tumours were collected in HBSS medium, minced and incubated 30 minutes at 37° C. in non-enzymatic cell dissociation buffer followed by mechanical dissociation through a 70 μm filter. Viable cells were then enriched using Ficoll® gradient. All cells suspensions were count and one million viable cells were seeded in 96-well plates in 100 μL of Staining Buffer for acquisition. Non-specific binding was performed using mouse FcR blocking reagent. Viobility 405/452 Fixable Dye (Miltenyi Biotec) was used to assess cell viability. The antibodies directed against the CD45, CD335 (Nkp46), FoxP3 CD8a, CD4, CD3e, CD19, F4/80, CD11c, CD11 b (Miltenyi Biotec), Ly6G and Ly6C (Biolegend) were added. The stained cells were analyzed with a Fortessa X20 cytometer (BD Biosciences).

USP7 = USP7 (Homo sapiens, UniProt Q93009); assay: USP7 FP; assay type: biochemical
TSol = assay type: physicochemical
LM CLhep (d) = assay type: in vitro ADME, dog
CT-26 tumours [5] = assay: Flow cytometry of tumour infiltrating immune cells, CT-26 model (ADC-159); assay type: in vivo, mouse; settings: ADC-159 alone or in combination with ICIs, 13 days
Procedure: FIG. 40: USP7 inhibitor ADC-159 modulates the tumour microenvironment immune compartment in vivo.
as §2

LNCaP = LNCaP cell EC50; assay type: cell-based; settings: Homo sapiens
CYP3A4 = CYP3A4 (Homo sapiens, UniProt P08684); assay: TDI shift CYP3A4; assay type: in vitro ADME; settings: value in brackets; shift N/A
KSol = assay type: physicochemical
hERG = hERG (Homo sapiens, UniProt Q12809); assay: hERG
Caco-2 permeability = assay type: in vitro ADME; settings: human, Caco-2; read-out: Caco-2 Papp ratio
Caco-2 = Caco-2 permeability; assay type: in vitro ADME

Sequence of USP7 (Q93009 whole entry): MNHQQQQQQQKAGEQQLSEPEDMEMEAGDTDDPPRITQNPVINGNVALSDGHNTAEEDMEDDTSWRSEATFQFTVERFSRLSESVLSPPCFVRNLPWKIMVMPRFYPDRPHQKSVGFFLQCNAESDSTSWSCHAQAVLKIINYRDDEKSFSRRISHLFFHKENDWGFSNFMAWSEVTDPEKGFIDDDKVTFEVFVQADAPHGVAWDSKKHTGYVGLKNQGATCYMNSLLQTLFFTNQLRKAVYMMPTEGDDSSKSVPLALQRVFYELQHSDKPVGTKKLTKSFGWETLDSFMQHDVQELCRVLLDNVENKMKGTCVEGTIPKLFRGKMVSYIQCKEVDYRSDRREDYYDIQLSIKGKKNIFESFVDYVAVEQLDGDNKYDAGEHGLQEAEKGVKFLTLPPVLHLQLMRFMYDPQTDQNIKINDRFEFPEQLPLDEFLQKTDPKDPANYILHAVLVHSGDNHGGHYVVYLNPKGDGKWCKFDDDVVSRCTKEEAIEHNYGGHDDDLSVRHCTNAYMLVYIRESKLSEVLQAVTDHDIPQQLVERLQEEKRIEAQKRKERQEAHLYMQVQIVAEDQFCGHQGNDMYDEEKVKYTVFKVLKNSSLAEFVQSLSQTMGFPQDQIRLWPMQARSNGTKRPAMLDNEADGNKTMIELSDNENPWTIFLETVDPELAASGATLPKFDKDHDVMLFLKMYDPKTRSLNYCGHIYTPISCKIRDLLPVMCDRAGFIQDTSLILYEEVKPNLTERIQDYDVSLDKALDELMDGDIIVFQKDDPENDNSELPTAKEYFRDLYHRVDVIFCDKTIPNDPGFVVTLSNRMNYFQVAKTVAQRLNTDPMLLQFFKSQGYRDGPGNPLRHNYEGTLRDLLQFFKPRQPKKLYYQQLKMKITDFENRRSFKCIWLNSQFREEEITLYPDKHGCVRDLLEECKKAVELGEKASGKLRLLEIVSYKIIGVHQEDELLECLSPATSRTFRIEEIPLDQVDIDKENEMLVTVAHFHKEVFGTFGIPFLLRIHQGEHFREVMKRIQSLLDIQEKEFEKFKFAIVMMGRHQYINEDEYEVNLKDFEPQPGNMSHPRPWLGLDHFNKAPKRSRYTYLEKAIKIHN
Sequence of hERG (Q12809 whole entry): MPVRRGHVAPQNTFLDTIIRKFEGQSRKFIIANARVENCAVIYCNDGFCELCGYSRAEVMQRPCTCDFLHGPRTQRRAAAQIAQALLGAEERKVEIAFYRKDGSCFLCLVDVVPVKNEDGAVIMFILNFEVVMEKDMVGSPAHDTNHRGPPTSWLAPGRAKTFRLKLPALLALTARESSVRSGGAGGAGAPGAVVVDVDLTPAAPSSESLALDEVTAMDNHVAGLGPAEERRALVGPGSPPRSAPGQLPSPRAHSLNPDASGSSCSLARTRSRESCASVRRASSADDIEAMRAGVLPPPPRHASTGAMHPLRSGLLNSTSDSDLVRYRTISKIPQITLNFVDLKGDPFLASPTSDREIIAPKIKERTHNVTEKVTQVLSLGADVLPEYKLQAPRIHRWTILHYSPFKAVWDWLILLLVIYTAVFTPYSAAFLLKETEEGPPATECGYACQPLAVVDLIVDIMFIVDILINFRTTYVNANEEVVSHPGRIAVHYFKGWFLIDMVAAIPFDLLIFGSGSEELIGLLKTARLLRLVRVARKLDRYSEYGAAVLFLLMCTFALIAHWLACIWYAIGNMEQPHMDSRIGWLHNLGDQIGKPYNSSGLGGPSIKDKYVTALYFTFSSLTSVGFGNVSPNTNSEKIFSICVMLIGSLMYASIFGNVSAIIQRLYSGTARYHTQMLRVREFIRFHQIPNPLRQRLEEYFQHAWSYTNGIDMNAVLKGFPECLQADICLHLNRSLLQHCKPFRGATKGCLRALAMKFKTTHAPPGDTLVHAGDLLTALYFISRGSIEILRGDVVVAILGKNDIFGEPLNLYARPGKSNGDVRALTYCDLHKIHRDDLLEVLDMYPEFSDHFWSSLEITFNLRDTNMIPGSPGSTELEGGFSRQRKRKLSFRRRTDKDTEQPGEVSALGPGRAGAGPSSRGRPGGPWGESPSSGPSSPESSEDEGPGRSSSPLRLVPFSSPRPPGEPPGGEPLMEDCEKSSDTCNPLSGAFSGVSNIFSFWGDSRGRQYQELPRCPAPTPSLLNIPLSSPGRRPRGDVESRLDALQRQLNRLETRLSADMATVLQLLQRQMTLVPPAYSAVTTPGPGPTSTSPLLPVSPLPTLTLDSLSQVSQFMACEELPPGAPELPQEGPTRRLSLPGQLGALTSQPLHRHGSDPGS
Sequence of CYP3A4 (P08684 whole entry): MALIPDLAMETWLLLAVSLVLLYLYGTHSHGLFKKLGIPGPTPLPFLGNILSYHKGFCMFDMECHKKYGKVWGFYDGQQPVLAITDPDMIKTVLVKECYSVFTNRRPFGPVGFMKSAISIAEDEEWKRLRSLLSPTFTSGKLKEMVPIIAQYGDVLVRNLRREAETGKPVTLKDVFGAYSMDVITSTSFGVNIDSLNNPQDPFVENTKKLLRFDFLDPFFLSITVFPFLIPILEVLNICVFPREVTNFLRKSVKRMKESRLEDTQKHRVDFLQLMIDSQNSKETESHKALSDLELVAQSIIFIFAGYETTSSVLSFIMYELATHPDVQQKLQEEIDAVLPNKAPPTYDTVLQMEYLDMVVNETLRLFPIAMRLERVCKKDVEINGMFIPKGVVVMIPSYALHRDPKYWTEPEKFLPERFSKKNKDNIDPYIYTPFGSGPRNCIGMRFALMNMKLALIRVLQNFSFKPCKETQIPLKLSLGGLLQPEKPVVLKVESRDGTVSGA

In the case of `C[C@H](CC(=O)N1CCC(O)(Cn2cnc3c(-c4ccc(CN)cc4)n(C)nc3c2=O)CC1)c1ccccc1` [AD-04, (R)-3-(4-(Aminomethyl)phenyl)-6-((4-hydroxy-1-(3-phenylbutanoyl)piperidin-4-yl)methyl)-2-methyl-2H-pyrazolo[4,3-d]pyrimidin-7(6H)-one], the MMP-2 levels (MMP-2) is reported as “decreases”, the “sVEGF levels in supernatants of cancer cell lines” value [1] is reported as “not significantly affected” and the tumour growth inhibition ([2]; 360 h) is reported as 53%. For the same compound, the “growth of CT26 xenografts (tumour volume)” value ([2]; dose-dependent manner) was “inhibited the growth”, the “tolerability, bodyweight of tumour-bearing mice” value ([2]; mouse, in vivo) was “no significant bodyweight loss; also recorded: well tolerated” and the VEGF secretion [3] was “insensitive”. The “CD4 lymphocytes among TILs” value (CT-26 tumours [4]) was “no significant change”, the “cytotoxic T-lymphocytes among TILs” value (CT-26 tumours [4]) was “significant increase” and the “macrophages in myeloid cell infiltrate” value (CT-26 tumours [4]) was “decrease”.
`CC1(C(=O)N2CCC(O)(Cn3cnc4c(cc(Cl)n4-c4ccc5c(c4)CCO5)c3=O)CC2)CC1` [ADC-159, 6-Chloro-7-(2,3-dihydrobenzofuran-5-yl)-3-((4-hydroxy-1-(1-methylcyclopropane-1-carbonyl)piperidin-4-yl)methyl)-3,7-dihydro-4H-pyrrolo[2,3-d]pyrimidin-4-One] gave an IC50 (USP7; asterisk not explained, read-out: USP7 FP IC50 (value in brackets marked *)) of 159 nM, an IC50 (USP7; read-out: USP7 FP IC50) of 386 nM and a TSol (TSol) of 500 µM. For the same compound, the “LM CLhep (d)” value (LM CLhep (d)) was 22, the “recruitment of cytotoxic lymphocytes into the tumour” value (CT-26 tumours [5]) was “increases recruitment” and the EC50 (LNCaP) was 76 nM. The IC50 (CYP3A4) was greater than 20 µM, the KSol (KSol) was 199 µM and the IC50 (hERG) was 15.6 µM. For the same compound, the efflux ratio (Caco-2 permeability) was 4.1, the “Caco-2 A:B” value (Caco-2; A:B) was 8.5 and the “Caco-2 B:A” value (Caco-2; B:A) was 34.7.
